Laboratory results published in patent US7820699B2, “Cyclic amines” (Hoffmann-La Roche Inc., priority 2005, dated 2010).

Each compound was assayed against T1, human factor Xa (Homo sapiens, UniProt P00742) (assay: chromogenic peptide substrate assay, inhibition of factor Xa). Conditions: human factor Xa 3 nM, chromogenic substrate S-2222, pH 7.8, room temperature; Ki from IC50 by Cheng-Prusoff.
T1 construct: purchased Enzyme Research Laboratories
T1 sequence (P00742 235-488 limits assumed): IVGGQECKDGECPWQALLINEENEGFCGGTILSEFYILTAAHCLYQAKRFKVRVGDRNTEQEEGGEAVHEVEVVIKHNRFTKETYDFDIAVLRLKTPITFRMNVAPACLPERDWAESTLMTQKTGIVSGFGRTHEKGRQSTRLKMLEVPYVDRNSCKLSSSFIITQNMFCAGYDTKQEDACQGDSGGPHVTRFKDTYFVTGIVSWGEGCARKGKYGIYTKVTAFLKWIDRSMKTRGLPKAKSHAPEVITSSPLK
T1 sequence (P00742 41-179 partner limits assumed): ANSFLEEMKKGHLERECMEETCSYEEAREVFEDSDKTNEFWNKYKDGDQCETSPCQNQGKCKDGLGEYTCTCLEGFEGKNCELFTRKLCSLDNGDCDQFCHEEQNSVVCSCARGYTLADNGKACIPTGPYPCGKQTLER
Format: biochemical
Protocol: Factor Xa activity was measured spectrophotometrically in microtiter plates in a final volume of 150 μl using the following conditions: Inhibition of human factor Xa (Enzyme Research Laboratories) was tested at an enzyme concentration of 3 nM using the chromogenic substrate S-2222 (Chromogenix AB, Molndal, Sweden) at […]. The reaction kinetics of the enzyme and the substrate were linear with both time and the enzyme concentration. The inhibitors were dissolved in DMSO and tested at various concentrations up to 100 μM. The inhibitors were diluted using HNPT buffer consisting of HEPES 100 mM, NaCl 140 mM, PEG 6000 0.1% and Tween 80 0.02%, pH 7.8. The cleavage of S-2222 by human factor Xa was followed at 405 nm for 5 minutes at room temperature. The velocity of the reaction was determined by the autoreader from the slope of the linear regression fit to 7 time points (1 minute). The initial velocity for each inhibitor concentration was determined by the slope of at least 4 time points in the linear phase by a linear regression fit […]. Apparent dissociation constants Ki were calculated according to Cheng and Prusoff [Cheng, Y. C.; Prusoff, W. H. Relationship between the inhibition constant (Ki) and the concentration of the inhibitor that causes 50 percent inhibition (IC50) of an enzyme reaction. Biochem. Pharmacol. 1973, 22, 3099-3108.] based on the IC50 and the respective Km, determined previously (Ki=IC50/(1+S/Km)). The Km for the substrate used was determined under the conditions of the test with at least 5 substrate concentrations ranging from 0.5 to 15 times Km. [Lottenberg R, Hall J A, Blinder M, Binder E P, Jackson C M., The action of thrombin on peptide p-nitroanilide substrates. Substrate selectivity and examination of hydrolysis under different reaction conditions. Biochim Biophys Acta. 1983 Feb. 15; 742(3):539-57]. According to Eadie [Eadie G. S. The inhibition of cholinesterase by physostigmine and prostigmine. J. Biol. Chem. 1942, 146, 85-93.], the Km for S-2222 amounted to 613 μM.
For `CC(C(=O)Nc1ccc(-n2ccccc2=O)cc1F)N1CC[C@@H](NC(=O)c2ccc(Cl)s2)C1` (stereo partly drawn) [Example 6, 5-chloro-thiophene-2-carboxylic acid ((R)-1-{1-[2-fluoro-4-(2-oxo-pyridin-1-yl)-phenylcarbamoyl]-ethyl}-pyrrolidin-3-yl)-amide], the Ki was 0.017 µM.
In the case of `CO[C@H]1CN(CC(=O)Nc2ccc(N3CCOCC3=O)cc2F)C[C@@H]1NC(=O)c1ccc(Cl)s1` [Example 26, 5-chloro-thiophene-2-carboxylic acid ((3S,4S)-1-{[2-fluoro-4-(3-oxo-morpholin-4-yl)-phenylcar-bamoyl]-methyl}-4-methoxy-pyrrolidin-3-yl)-amide], the Ki is reported as 0.014 µM.
In the case of `O=C(NC[C@H]1CCN(C(=O)Nc2ccc(-n3ccccc3=O)cc2F)C1)c1ccc(Cl)s1` [Example 54, (R)-3-{[(5-chloro-thiophene-2-carbonyl)-amino]-methyl}-pyrrolidine-1-carboxylic acid[2-fluoro-4-(2-oxo-2H-pyridin-1-yl)-phenyl]-amide], the Ki is reported as 0.013 µM.
Compound `O=C(NC[C@@H]1CN(C(=O)Nc2ccc(-n3ccccc3=O)cc2F)C[C@H]1C(F)(F)F)c1ccc(Cl)s1` [Example 77, (3R,4S)-3-{[(5-chloro-thiophene-2-carbonyl)-amino]-methyl}-4-trifluoromethyl-pyrrolidine-1-carboxy-lic acid[2-fluoro-4-(2-oxo-2H-pyridin-1-yl)-phenyl]-amide] has a Ki of 0.008 µM.
`CN(C1CN(C(=O)Nc2ccc(-n3ccccc3=O)cc2F)C[C@H]1CNC(=O)c1ccc(Cl)s1)S(C)(=O)=O` (stereo partly drawn) [Example 85, (R)-3-{[(5-chloro-thiophene-2-carbonyl)-amino]-methyl}-4-(methanesulfonyl-methyl-amino)-pyrrolidine-1-carboxylic acid[2-fluoro-4-(2-oxo-2H-pyridin-1-yl)-phenyl]-amide] showed a Ki of 0.012 µM.
